{"source": "patent US11827628B2", "about": "“Compositions and methods for inhibition of the JAK pathway” (Rigel Pharmaceuticals, Inc., priority 2005, dated 2023)", "key": {"[1]": {"test_system": "Primary human T-cells", "assay": "Primary Human T-Cell Proliferation Assay Stimulated with IL-2 (CellTiter-Glo)", "type": "cell-based", "details": "primary human T-cell proliferation stimulated with IL-2; read-out: IC50, Example 42", "how_it_was_run": "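IC50 derived from CellTiter-Glo ATP signal after 72 hours of IL-2-driven proliferation at 37° C. Cells: primary human T-cells from blood, stimulated beforehand 3-4 days on anti-CD3/anti-CD28 with IL-2, then rested from IL-2 before compound exposure in duplicate; IL-2-free wells served as unstimulated control.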"}, "[2]": {"test_system": "IL-4 stimulated expression of CD23 in human Ramos B cells (JAK-1 and JAK-3)", "assay": "Assay for Ramos B-Cell Line Stimulated with IL-4 (CD23 upregulation, FACS)", "type": "cell-based", "details": "Ramos B-cell line stimulated with IL-4, CD23 expression by FACS, read-out: IC50, Example 41", "how_it_was_run": "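Human Ramos B cells (5×10^4 per point, RPMI 5% serum) pre-incubated 1 h at 37 °C with compound or DMSO, then stimulated with IL-4 at 50 units/mL final for 20-24 h. CD23 upregulation measured by anti-CD23-PE staining and flow cytometry; IC50 derived.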"}}, "note": "Where two headings read alike, the source gives them in different places.", "data": [{"smiles": "CCC(=O)NS(=O)(=O)c1cccc(Nc2ncc(F)c(Nc3ccc(OCc4nc(C)no4)cc3)n2)c1", "note": "[Compound I-273]", "values": [{"measurement": "IC50", "setting": "[1]", "value": 193, "unit": "nM"}, {"measurement": "IC50", "setting": "[2]; sodium salt", "value": 478, "unit": "nM"}]}, {"smiles": "Cc1ccc(Nc2ncc(F)c(Nc3ccc(OC(C)C#N)cc3)n2)cc1S(N)(=O)=O", "note": "(racemic) [Compound I-67, Racemic N2-(3-Aminosulfonyl-4-methyl)phenyl-N4-[4-(1-cyano)ethoxy]phenyl-5-fluoro-2,4-pyrimidinediamine]", "values": [{"measurement": "IC50", "setting": "[1]", "value": 157, "unit": "nM"}, {"measurement": "IC50", "setting": "[2]", "value": 33.2, "unit": "nM"}]}, {"smiles": "CNS(=O)(=O)c1cc(Nc2ncc(F)c(NCCc3ccc(-c4ccncc4)cc3)n2)ccc1C", "note": "[III-78, 5-Fluoro-N2-[3-N-(methyl)aminosulfonyl-4-methylphenyl]-N4-[4-(4-pyridinyl)phenethyl]-2,4-pyrimidinediamine]", "values": [{"measurement": "IC50", "setting": "[1]", "value": 204, "unit": "nM"}, {"measurement": "IC50", "setting": "[2]", "value": 275, "unit": "nM"}]}, {"smiles": "Cc1cc(Nc2nc(Nc3ccc(S(N)(=O)=O)cc3)ncc2F)cc(C)c1OC(C)C#N", "note": "(racemic) [Compound I-63, Racemic N2-(4-Aminosulfonyl)phenyl-N4-[4-(1-cyano)ethoxy-3,5-dimethyl]phenyl-5-fluoro-2,4-pyrimidinediamine]", "values": [{"measurement": "IC50", "setting": "[1]", "value": 1310, "unit": "nM"}, {"measurement": "IC50", "setting": "[2]", "value": 169, "unit": "nM"}]}, {"smiles": "Cc1ccc(Nc2ncc(F)c(Nc3cc(C)c(OC(C)C#N)c(C)c3)n2)cc1S(N)(=O)=O", "note": "(racemic) [Compound I-72, Racemic N2-(3-Aminosulfonyl-4-methyl)phenyl-N4-[4-(1-cyano)ethoxy-3,5-dimethyl]phenyl-5-fluoro-2,4-pyrimidinediamine]", "values": [{"measurement": "IC50", "setting": "[1]", "value": 303, "unit": "nM"}, {"measurement": "IC50", "setting": "[2]", "value": 52.4, "unit": "nM"}]}, {"smiles": "Cc1ccc(Nc2ncc(F)c(Nc3ccc(OCC#N)c(Cl)c3)n2)cc1S(N)(=O)=O", "note": "[Compound I-43, N2-(3-Aminosulfonyl-4-methylphenyl)-N4-(3-chloro-4-cyanomethoxypheny)-5-fluoro-2,4-pyrimidinediamine]", "values": [{"measurement": "IC50", "setting": "[1]", "value": 183, "unit": "nM"}, {"measurement": "IC50", "setting": "[2]", "value": 18.3, "unit": "nM"}]}]}
